# From paper PMC5688156, “The natural product carolacton inhibits folate-dependent C1 metabolism by targeting FolD/MTHFD” (Nature Communications, 2017)
# Values joined by “and” are separate entries in the source; they are usually repeats but may differ in a detail not shown here. Equal entries are not always repeated.
# Assays:
# ecFolD K54N = molecular target: T1, ecFolD K54N (Escherichia coli, UniProt P24186, K54N); assay: ecFolD K54N mutant dehydrogenase (DH) enzyme assay; type: biochemical, E. coli
# T1 construct: His-tag (TEV-cleavable, vector pHis-TEV); made in house; host or cells: E. coli BL21 (DE3)
# Method: (§1) (6R,S)-5,10-Methylene-5,6,7,8-tetrahydrofolic acid ((6R,S)-5,10-CH2-THF) calcium salt and (6R,S)-5,10-Methenyl-5,6,7,8-tetrahydrofolic acid ((6R,S)-5,10-CH=THF) chloride were purchased from Schircks Laboratories (Bauma, Switzerland) and used as substrates for FolD dehydrogenase and cyclohydrolase enzyme assays, respectively. Only the R-isomer, which accounts for 50% of (6R,S)-5,10-CH2-THF and (6R,S)-5,10-CH=THF, respectively, is used by the enzyme. (6R,S)-5,10-CH2-THF was dissolved in N2-spargeled basic buffer (50 mM Tris-HCl (pH 8.0), 100 mM β-mercaptoethanol) as described by Varshney et al.[25]. (6R,S)-5,10-CH=THF was dissolved in DMSO as a 100 mM stock solution.
# (§2) Because FolD is a bifunctional enzyme, dehydrogenase and cyclohydrolase activities were determined for FolD enzyme kinetics, respectively. The dehydrogenase activity of FolD was assayed for its substrate 5,10-CH2-THF and cofactor NADP^+ (in the case of MTHFD2, NAD^+ was used as the cofactor) based on monitoring the formation of 5,10-CH=THF, while the cyclohydrolase activity of FolD was determined for its substrate 5,10-CH=THF by monitoring the hydrolysis of […]. The enzyme kinetics for the dehydrogenase activity of all FolDs except hsMTHFD1_DC were determined at 30 °C in 50 mM Tris-HCl (pH 7.5), 30 mM β-mercaptoethanol. […]
# hsMTHFD1_DC = molecular target: T2, hsMTHFD1_DC (Homo sapiens, UniProt P11586); assay: hsMTHFD1_DC cyclohydrolase (CYH) enzyme assay; type: biochemical; conditions: hsMTHFD1 DC301
# T2 construct: hsMTHFD1 DC301; His-tag (TEV-cleavable, vector pHis-TEV); made in house; host or cells: E. coli BL21 (DE3)
# T2 sequence (P11586 2-291 limits assumed): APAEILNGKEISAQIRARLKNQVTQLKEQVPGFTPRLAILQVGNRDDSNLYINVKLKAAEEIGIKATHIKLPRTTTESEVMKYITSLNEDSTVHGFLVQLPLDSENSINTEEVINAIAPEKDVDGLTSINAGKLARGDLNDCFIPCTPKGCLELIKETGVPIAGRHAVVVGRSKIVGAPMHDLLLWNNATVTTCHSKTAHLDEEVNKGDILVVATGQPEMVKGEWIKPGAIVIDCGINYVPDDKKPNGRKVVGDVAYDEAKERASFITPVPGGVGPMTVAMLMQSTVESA
# Method: as §1
# (§3) Because FolD is a bifunctional enzyme, dehydrogenase and cyclohydrolase activities were determined for FolD enzyme kinetics, respectively. The dehydrogenase activity of FolD was assayed for its substrate 5,10-CH2-THF and cofactor NADP^+ (in the case of MTHFD2, NAD^+ was used as the cofactor) based on monitoring the formation of 5,10-CH=THF, while the cyclohydrolase activity of FolD was determined for its substrate 5,10-CH=THF by monitoring the hydrolysis of […]. The enzyme kinetics for the dehydrogenase activity of all FolDs except hsMTHFD1_DC were determined at 30 °C in 50 mM Tris-HCl (pH 7.5), 30 mM β-mercaptoethanol. The hsMTHFD1_DC dehydrogenase activity was measured in 25 mM MOPS (pH 7.3), 30 mM β-mercaptoethanol at 30 °C. […] To monitor the formation of 5,10-CH=THF, the absorbance of the reaction mixture was monitored at 350 nm in micro UV cuvettes (BRAND, Essex, Connecticut, USA). The concentration of 5,10-CH=THF produced in the reaction was determined using an extinction co-efficient of 0.0249 μM^−1 cm^−1. […] The consumption of 5,10-CH=THF was measured by recording the absorbance of the reactions at 355 nm using the TECAN Infinite 200 PRO equipped with a monochromator. […] The inhibition constants (K i) of carolacton on FolD were determined by measuring the apparent K m when adding certain amounts of carolacton to the enzyme reactions. […]
# L929 mouse cells = test system: L929 mouse cells; set-up: method as in doi:10.1002/ejoc.200901126, PMID 20659313; conditions: cited from earlier work
# ecFolD = molecular target: T3, ecFolD (Escherichia coli, UniProt P24186); assay: ecFolD cyclohydrolase (CYH) enzyme assay; type: biochemical, E. coli
# T3 construct: His-tag (TEV-cleavable, vector pHis-TEV); made in house; host or cells: E. coli BL21 (DE3)
# Method: as §1, §3
# ecFolD ΔK54R55 = molecular target: T4, ecFolD ΔK54R55 (Escherichia coli, UniProt P24186, DEL54-55); assay: ecFolD ΔK54R55 mutant dehydrogenase (DH) enzyme assay; type: biochemical, E. coli
# T4 construct: His-tag (TEV-cleavable, vector pHis-TEV); made in house; host or cells: E. coli BL21 (DE3)
# Method: as §1, §2
smiles,measurement,setting,value
CO[C@H](CC(=O)O)[C@@H](C)C(=O)[C@H](C)/C=C(\C)[C@H]1OC(=O)[C@H](O)[C@H](O)/C=C/[C@H](C)CCC[C@@H]1C [carolacton],sensitivity of residual DH activity to carolacton,ecFolD K54N,completely insensitive
same,IC50,"hsMTHFD1_DC; 5 nM enzyme, read-out: IC50, carolacton inhibition on CYH activity",19.4 nM
same,IC80,"hsMTHFD1_DC; 5 nM enzyme, read-out: IC80, carolacton inhibition on CYH activity",67.5 nM
same,Ki,"hsMTHFD1_DC; vs 5,10-CH=THF, read-out: Ki (5,10-CH=THF), carolacton inhibition on CYH activity",20.6 nM
same,acute toxicity to L929 mouse cells,L929 mouse cells,no acute toxicity
same,IC50,ecFolD,49.8 nM
same,Ki,"ecFolD; Ki (5,10-CH=THF), carolacton inhibition on CYH activity, competitive vs substrate 5,10-CH=THF, from apparent KM",32 nM and 31.6 nM
same,IC80,"ecFolD; read-out: IC80, carolacton inhibition on CYH activity",180 nM
same,sensitivity of residual DH activity to carolacton,ecFolD ΔK54R55,completely insensitive
